From PubChem BioAssay (NCI)
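Following 48 hours of exposure in 96-well plates, responses at five concentrations were used to interpolate endpoints linearly. Abbreviation: GI50, concentration required for 50% inhibition of growth. Definition used: TGI = concentration required for complete inhibition of growth.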

What was measured:
Assay in all cases: growth of human tumour cells (NCI), 48 h
[1] = tested on: PC-3 prostate
[2] = tested on: CAKI-1 renal
[3] = tested on: SN12C renal
[4] = tested on: UO-31 renal
[5] = tested on: SNB-75 CNS
[6] = tested on: 786-0 renal
[7] = tested on: NCI-H226 lung
[8] = tested on: T-47D breast
[9] = tested on: HCT-15 colon
[10] = tested on: SK-MEL-5 melanoma
[11] = tested on: HCT-116 colon
[12] = tested on: OVCAR-5 ovarian
[13] = tested on: M14 melanoma
[14] = tested on: SK-OV-3 ovarian
[15] = tested on: OVCAR-8 ovarian
[16] = tested on: SK-MEL-2 melanoma
[17] = tested on: HT29 colon
[18] = tested on: MCF7 breast
[19] = tested on: ACHN renal
[20] = tested on: EKVX NSCLC
[21] = tested on: HL-60(TB) leukemia
[22] = tested on: NCI-H23 lung
[23] = tested on: SK-MEL-28 melanoma
[24] = tested on: LOX IMVI melanoma
[25] = tested on: OVCAR-3 ovarian
[26] = tested on: DU-145 prostate
[27] = tested on: UACC-257 melanoma
[28] = tested on: SR leukemia
[29] = tested on: MOLT-4 leukemia
[30] = tested on: SF-539 CNS
[31] = tested on: U251 CNS
[32] = tested on: SF-295 CNS
[33] = tested on: CCRF-CEM leukemia
[34] = tested on: IGROV1 ovarian
[35] = tested on: COLO 205 colon
[36] = tested on: NCI/ADR-RES ovarian
[37] = tested on: A549 NSCLC
[38] = tested on: NCI-H460 lung
[39] = tested on: MDA-MB-231 breast
[40] = tested on: SF-268 CNS
[41] = tested on: OVCAR-4 ovarian
[42] = tested on: K-562 leukemia
[43] = tested on: MALME-3M melanoma
[44] = tested on: SW-620 colon
[45] = tested on: KM12 colon
[46] = tested on: RPMI-8226 leukemia
[47] = tested on: BT-549 breast
[48] = tested on: UACC-62 melanoma
[49] = tested on: NCI-H522 lung
[50] = tested on: HCC-2998 colon
[51] = tested on: A498 renal
[52] = tested on: TK-10 renal
[53] = tested on: HS 578T breast
[54] = tested on: HOP-62 NSCLC
[55] = tested on: SNB-19 CNS
[56] = tested on: HOP-92 NSCLC
[57] = tested on: MDA-MB-435
[58] = tested on: RXF 393 renal

With `CS(=O)(=O)CCNCc1ccc(-c2ccc3ncnc(Nc4ccc(OCc5cccc(C(F)(F)F)c5)cc4)c3c2)o1` the GI50 [1] was 5.63 µM, the TGI [1] was 19.9 µM and the GI50 [2] was 5.57 µM. It also gave a TGI [2] greater than 19.8 µM, a GI50 [3] of 7.81 µM and a TGI [3] greater than 19.1 µM. For the same molecule, the GI50 [4] was 4.34 µM, the TGI [4] was 10.2 µM and the GI50 [5] was 8.21 µM. For the same molecule, the TGI [5] was greater than 21.1 µM, the GI50 [6] was 4.61 µM and the TGI [6] was 8.85 µM. For the same molecule, the GI50 [7] was greater than 16.3 µM, the TGI [7] was greater than 25 µM and the GI50 [8] was 7.6 µM. The TGI [8] was greater than 23 µM, the GI50 [9] was 4.71 µM and the TGI [9] was 10.6 µM. The GI50 [10] was 6.05 µM, the TGI [10] was greater than 13.5 µM and the GI50 [11] was 5.07 µM. It also gave a TGI [11] of 10 µM, a GI50 [12] of 9.03 µM and a TGI [12] of 24.3 µM. It also gave a GI50 [13] of 6.11 µM, a TGI [13] of 13.9 µM and a GI50 [14] of 9.25 µM. For the same molecule, the TGI [14] was greater than 25 µM, the GI50 [15] was 6.91 µM and the TGI [15] was greater than 21.9 µM. The GI50 [16] was 5.46 µM, the TGI [16] was 9.96 µM and the GI50 [17] was 4.22 µM. The TGI [17] was 8.32 µM, the GI50 [18] was 6.38 µM and the TGI [18] was greater than 15 µM. The GI50 [19] was 7.38 µM, the TGI [19] was greater than 25 µM and the GI50 [20] was 6.03 µM. It also gave a TGI [20] greater than 23.3 µM, a GI50 [21] of 4.96 µM and a TGI [21] of 10.9 µM. The GI50 [22] was 5.93 µM, the TGI [22] was 15.7 µM and the GI50 [23] was 4.29 µM. It also gave a TGI [23] of 8.23 µM, a GI50 [24] of 4.53 µM and a TGI [24] of 9.32 µM. It also gave a GI50 [25] of 5.15 µM, a TGI [25] of 11.2 µM and a GI50 [26] of 6.98 µM. For the same molecule, the TGI [26] was greater than 22.6 µM, the GI50 [27] was 3.79 µM and the TGI [27] was 7.49 µM. For the same molecule, the GI50 [28] was 4.49 µM, the TGI [28] was 16.7 µM and the GI50 [29] was 4.87 µM. For the same molecule, the TGI [29] was greater than 20.9 µM, the GI50 [30] was 4.66 µM and the TGI [30] was 9.75 µM. The GI50 [31] was 4.22 µM, the TGI [31] was 9.51 µM and the GI50 [32] was 5.08 µM. For the same molecule, the TGI [32] was 11.3 µM, the GI50 [33] was 6.14 µM and the TGI [33] was greater than 25 µM. The GI50 [34] was 5.46 µM, the TGI [34] was greater than 17.5 µM and the GI50 [35] was 6.83 µM. For the same molecule, the TGI [35] was greater than 15.5 µM, the GI50 [36] was 7.19 µM and the TGI [36] was greater than 25 µM. It also gave a GI50 [37] of 6.49 µM, a TGI [37] greater than 25 µM and a GI50 [38] of 5.31 µM. For the same molecule, the TGI [38] was 11.8 µM, the GI50 [39] was 6.34 µM and the TGI [39] was 14.1 µM. The GI50 [40] was 4.54 µM, the TGI [40] was 9.82 µM and the GI50 [41] was 8.68 µM. For the same molecule, the TGI [41] was greater than 25 µM, the GI50 [42] was 3.18 µM and the TGI [42] was 15 µM. The GI50 [43] was 5.28 µM, the TGI [43] was 10.5 µM and the GI50 [44] was 5.2 µM. The TGI [44] was 10.1 µM, the GI50 [45] was 5.74 µM and the TGI [45] was 13.2 µM. For the same molecule, the GI50 [46] was 5.7 µM, the TGI [46] was 16.5 µM and the GI50 [47] was 9.57 µM. For the same molecule, the TGI [47] was greater than 21.8 µM, the GI50 [48] was 5.11 µM and the TGI [48] was 9.66 µM. The GI50 [49] was 4.8 µM, the TGI [49] was 8.91 µM and the GI50 [50] was 4.46 µM. It also gave a TGI [50] of 8.26 µM, a GI50 [51] of 4.38 µM and a TGI [51] of 13.1 µM. For the same molecule, the GI50 [52] was 3.17 µM, the TGI [52] was 11.1 µM and the GI50 [53] was 7.02 µM. The TGI [53] was greater than 19.4 µM, the GI50 [54] was 6.53 µM and the TGI [54] was 16.6 µM. For the same molecule, the GI50 [55] was 11.3 µM, the TGI [55] was greater than 25 µM and the GI50 [56] was 2.6 µM. For the same molecule, the TGI [56] was 7.81 µM, the GI50 [57] was 4.71 µM and the TGI [57] was 10.7 µM. For the same molecule, the GI50 [58] was 5.28 µM and the TGI [58] was 13.6 µM.
